Source: publication PMC2760932 (Journal of medicinal chemistry, 2009)

Columns and labels:
[1] = molecular target: human D3 dopamine receptor (Homo sapiens, UniProt P35462); test: Competition binding, [125I]IABN, HEK 293 cells transfected with human D3; details: for D4/D3: Table 2, ratio of Ki values
D2 receptor = D2 receptor (Homo sapiens, UniProt P14416); test: D2 binding assay by the contractor
dopamine D3 receptor = dopamine D3 receptor (Homo sapiens, UniProt P35462); test: Quinpirole-stimulated mitogenesis assay, D3
Sequence of dopamine D3 receptor (P35462 whole entry): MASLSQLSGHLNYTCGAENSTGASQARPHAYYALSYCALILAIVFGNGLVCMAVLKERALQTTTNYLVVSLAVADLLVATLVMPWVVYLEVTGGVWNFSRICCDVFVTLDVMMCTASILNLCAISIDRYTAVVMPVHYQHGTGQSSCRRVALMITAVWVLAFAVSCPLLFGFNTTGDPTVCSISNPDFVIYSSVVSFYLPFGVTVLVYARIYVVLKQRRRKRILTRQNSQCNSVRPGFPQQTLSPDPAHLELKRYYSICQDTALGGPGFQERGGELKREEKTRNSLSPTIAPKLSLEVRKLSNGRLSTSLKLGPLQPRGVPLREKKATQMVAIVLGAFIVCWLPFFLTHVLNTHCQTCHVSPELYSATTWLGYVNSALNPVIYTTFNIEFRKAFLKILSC

Sequence of human D3 dopamine receptor (P35462 whole entry): as above
Sequence of D2 receptor (P14416 whole entry): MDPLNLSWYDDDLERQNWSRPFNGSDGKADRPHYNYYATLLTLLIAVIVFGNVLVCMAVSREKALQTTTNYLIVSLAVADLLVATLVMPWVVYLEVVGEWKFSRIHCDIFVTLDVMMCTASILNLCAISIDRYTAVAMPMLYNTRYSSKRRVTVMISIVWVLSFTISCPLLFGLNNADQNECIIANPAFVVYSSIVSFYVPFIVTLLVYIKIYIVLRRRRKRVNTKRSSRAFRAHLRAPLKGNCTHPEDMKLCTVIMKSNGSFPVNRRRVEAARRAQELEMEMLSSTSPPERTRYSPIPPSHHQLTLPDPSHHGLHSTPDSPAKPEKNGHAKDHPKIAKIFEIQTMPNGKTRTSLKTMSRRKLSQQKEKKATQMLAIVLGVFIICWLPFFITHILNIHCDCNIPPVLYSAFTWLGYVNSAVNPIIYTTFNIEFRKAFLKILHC

| Structure (SMILES) | D4/D3 [1] | Ki (D2 receptor) | further results |
| --- | --- | --- | --- |
| O=C(NCCC(O)CN1CCN(c2cccc(Cl)c2Cl)CC1)c1cc2cc(I)ccc2o1 (centres unmarked) [Compound 33, N-(4-(4-(2,3-Dichloro-phenyl)piperazin-1-yl)-3-hydroxybutyl)-5-iodobenzofuran-2-carboxamide] | >1300 | – | – |
| COc1ccc2[nH]c(C(=O)NCCC(O)CN3CCN(c4cccc(Cl)c4Cl)CC3)cc2c1 (centres unmarked) [Compound 29, N-(4-(4-(2,3-Dichloro-phenyl)piperazin-1-yl)-3-hydroxybutyl)-5-methoxy-1H-indole-2-carboxamide] | – | > 400 nM | Ki [1]: 1 nM |
| COc1ccccc1N1CCN(CCCCNC(=O)c2cc3cc(I)ccc3o2)CC1 [Compound 14, 5-Iodo-N-(4-(4-(2-methoxy-phenyl)piperazin-1-yl)butyl)benzofuran-2-carboxamide] | – | – | D3 selectivity over D2 (binding) ([1]; from Ki values): > 100 fold |
| COc1ccccc1N1CCN(CC(O)CCNC(=O)c2cc3cc(F)ccc3[nH]2)CC1 (centres unmarked) [Compound 26, 5-Fluoro-N-(3-hydroxy-4-(4-(2-methoxy-phenyl)piperazin-1-yl)butyl)-1H-indole-2-carboxamide] | – | – | D3 selectivity over D2 receptor mediated mitogenesis (dopamine D3 receptor): ~100 fold |

Now from value to molecule, other results behind:

| D4/D3 [1] | Ki (D2 receptor) | Structure (SMILES) | further results |
| --- | --- | --- | --- |
| – | > 400 nM | COc1ccc2[nH]c(C(=O)NCCC(O)CN3CCN(c4ccccc4OC)CC3)cc2c1 (centres unmarked) [Compound 30, N-(3-Hydroxy-4-(4-(2-methoxy-phenyl)piperazin-1-yl)butyl)-5-methoxy-1H-indole-2-carboxamide] | EC50 (dopamine D3 receptor): 13.7 nM |
| >1600 | – | O=C(NCCC(O)CN1CCN(c2cccc(Cl)c2Cl)CC1)c1cc2ccccc2o1 (centres unmarked) [Compound 31, N-(4-(4-(2,3-Dichloro-phenyl)piperazin-1-yl)-3-hydroxybutyl)benzofuran-2-carboxamide] | – |
